The test relates to P388 leukemia ip, CD2F1 mice, survival T/C. The experiment in a line: NCI In Vivo Anticancer Drug Screen. Data for tumor model P388 Leukemia (intraperitoneal) in CD2F1 (CDF1) mice. To be noted: endpoint: median survival time, higher = longer survival. In outline:
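Mice carrying the transplanted tumor received test compound or vehicle. Survival was recorded in each group, and the value is the treated-group measurement divided by that of the vehicle-treated control group.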

Where [1] appears, read: dose: 25.0 mg/kg/injection, schedule: Q01DX009 (ip), vehicle: Klucel (hydroxypropylcellulose) (HPC).
The mark [2] stands for this setting: dose: 60.0 mg/kg/injection, schedule: Q01DX005 (ip), vehicle: saline with Tween-80.
Setting [3] is: dose: 120.0 mg/kg/injection, schedule: Q01DX005 (ip), vehicle: saline with Tween-80.
[4] abbreviates: dose: 50.0 mg/kg/injection, schedule: Q01DX005 (ip), vehicle: Klucel (hydroxypropylcellulose) (HPC).
Where [5] appears, read: dose: 100.0 mg/kg/injection, schedule: Q01DX005 (ip), vehicle: Klucel (hydroxypropylcellulose) (HPC).
[6] abbreviates: dose: 200.0 mg/kg/injection, schedule: Q01DX005 (ip), vehicle: Klucel (hydroxypropylcellulose) (HPC).
Where [7] appears, read: dose: 200.0 mg/kg/injection, schedule: Q01DX009 (ip), vehicle: saline with Tween-80.
Setting [8] is: dose: 400.0 mg/kg/injection, schedule: Q01DX009 (ip), vehicle: saline with Tween-80.
The mark [9] stands for this setting: dose: 50.0 mg/kg/injection, schedule: Q01DX005 (ip), vehicle: saline with Tween-80.
[10] abbreviates: dose: 100.0 mg/kg/injection, schedule: Q01DX005 (ip), vehicle: saline with Tween-80.
Where [11] appears, read: dose: 100.0 mg/kg/injection, schedule: Q01DX009 (ip), vehicle: saline with Tween-80.
The mark [12] stands for this setting: dose: 6.25 mg/kg/injection, schedule: Q01DX009 (ip), vehicle: saline with Tween-80.
Where [13] appears, read: dose: 12.5 mg/kg/injection, schedule: Q01DX009 (ip), vehicle: saline with Tween-80.
The mark [14] stands for this setting: dose: 50.0 mg/kg/injection, schedule: Q01DX009 (ip), vehicle: saline with Tween-80.
[15] abbreviates: dose: 200.0 mg/kg/injection, schedule: Q01DX005 (ip), vehicle: saline with Tween-80.
Where [16] appears, read: dose: 25.0 mg/kg/injection, schedule: Q01DX009 (ip), vehicle: saline with Tween-80.

Molecules are shown by their SMILES. “And” between values parts separate entries of the source, which are not always exact repeats. Equal entries are not always repeated. Inconclusive results and toxic doses are left out. Bridge positions count the residues as written; N and C are the ends. Peptide text beside a SMILES is read from it. I, II: the chains in the order shown.

In the case of `OCc1nc2ccccc2[nH]1`, the T/C is, setting by setting: under setting [1], 96 % of control; (dose: 50.0 mg/kg/injection, schedule: Q01DX009 (ip), vehicle: Klucel (hydroxypropylcellulose) (HPC)) 97 % of control; (dose: 100.0 mg/kg/injection, schedule: Q01DX009 (ip), vehicle: Klucel (hydroxypropylcellulose) (HPC)) 96 % of control; (dose: 200.0 mg/kg/injection, schedule: Q01DX009 (ip), vehicle: Klucel (hydroxypropylcellulose) (HPC)) 114 % of control.
Take `Cc1cc(=O)oc2c1ccc1c(O)cccc12`: the T/C under setting [2] was 106 % of control and the T/C under setting [3] is 100 % of control.
Turning to `CC(C)CC(NC(=O)C(N)CSSCC(N)C(=O)NC(CC(C)C)C(=O)O)C(=O)O` (stereo not drawn) (I: H-Cys-Leu-OH / II: H-Cys-Leu-OH; disulfide I:1-II:1; configuration not given here), the T/C was 106 % of control under setting [4], 113 % of control under setting [5] and 92 % of control under setting [6].
In the case of `CCOC(=O)c1ccc(NC(=O)Nc2nccs2)cc1`, the T/C by setting is: under setting [7], 162 % of control; under setting [8], 92 % of control.
Turning to `O=C1C=C(Cl)C(O)C1(Cl)Cl` (centres undefined), the T/C is, setting by setting: (dose: 6.25 mg/kg/injection, schedule: Q01DX009 (ip), vehicle: saline) 94 % of control; (dose: 12.5 mg/kg/injection, schedule: Q01DX009 (ip), vehicle: saline) 92 % of control.
As to `NC(=S)c1ccc(N=Cc2ccccn2)cc1`, the T/C (dose: 25.0 mg/kg/injection, schedule: Q01DX001 (ip), vehicle: Klucel (hydroxypropylcellulose) (HPC)) was 100 % of control; the T/C (dose: 50.0 mg/kg/injection, schedule: Q01DX001 (ip), vehicle: Klucel (hydroxypropylcellulose) (HPC)) was 100 % of control; the T/C (dose: 100.0 mg/kg/injection, schedule: Q01DX001 (ip), vehicle: Klucel (hydroxypropylcellulose) (HPC)) is 103 % of control and 106 % of control; the T/C (dose: 200.0 mg/kg/injection, schedule: Q01DX001 (ip), vehicle: Klucel (hydroxypropylcellulose) (HPC)) is 102 % of control; the T/C (dose: 400.0 mg/kg/injection, schedule: Q01DX001 (ip), vehicle: Klucel (hydroxypropylcellulose) (HPC)) was 105 % of control.
Take `O=C(O)c1cccc(-c2c3ccc(=O)cc-3oc3cc(O)ccc23)c1`: the T/C by setting is: (dose: 60.0 mg/kg/injection, schedule: Q01DX005 (ip), vehicle: Klucel (hydroxypropylcellulose) (HPC)) 104 % of control; (dose: 120.0 mg/kg/injection, schedule: Q01DX005 (ip), vehicle: Klucel (hydroxypropylcellulose) (HPC)) 113 % of control; (dose: 240.0 mg/kg/injection, schedule: Q01DX005 (ip), vehicle: Klucel (hydroxypropylcellulose) (HPC)) 110 % of control.
With `O=[N+]([O-])C(c1ccccc1)C(c1ccccc1)[N+](=O)[O-]` (centres undefined), the T/C by setting is: (dose: 12.5 mg/kg/injection, schedule: Q01DX005 (ip), vehicle: saline with Tween-80) 98 % of control; (dose: 25.0 mg/kg/injection, schedule: Q01DX005 (ip), vehicle: saline with Tween-80) 101 % of control; under setting [9], 109 % of control and 112 % of control and 119 % of control; under setting [10], 109 % of control and 110 % of control.
On to `C=CCc1cc(Nc2c3ccc(Cl)cc3nc3ccc(OC)cc23)cc(CN(CC)CC)c1O`, for which the T/C was 106 % of control and 110 % of control (dose: 3.12 mg/kg/injection, schedule: Q01DX005 (ip), vehicle: Klucel (hydroxypropylcellulose) (HPC)); 118 % of control (dose: 6.0 mg/kg/injection, schedule: Q01DX005 (ip), vehicle: Klucel (hydroxypropylcellulose) (HPC)); 109 % of control and 110 % of control (dose: 6.25 mg/kg/injection, schedule: Q01DX005 (ip), vehicle: Klucel (hydroxypropylcellulose) (HPC)); 123 % of control (dose: 12.0 mg/kg/injection, schedule: Q01DX005 (ip), vehicle: Klucel (hydroxypropylcellulose) (HPC)).
In the case of `CNc1[nH]c(=O)ncc1N`, the T/C reads like this: (dose: 25.0 mg/kg/injection, schedule: Q01DX005 (ip), vehicle: Klucel (hydroxypropylcellulose) (HPC)) 98 % of control; under setting [4], 98 % of control; under setting [5], 98 % of control.
With `O=C(NC(CO)C(=O)OCc1ccccc1)OCc1ccccc1` (centres undefined), the T/C is 90 % of control under setting [11], 90 % of control under setting [7] and 95 % of control under setting [8].
`COC(=O)[CH](C[N+](=O)[O-])[Hg][Cl]` (centres undefined): the T/C (dose: 3.12 mg/kg/injection, schedule: Q01DX009 (ip), vehicle: saline with Tween-80) is 100 % of control; the T/C under setting [12] is 100 % of control; the T/C under setting [13] was 95 % of control.
In the case of `Nc1nc(N)nc(-c2cccc(Cl)c2)n1`, the T/C runs as follows: under setting [2], 100 % of control; under setting [3], 98 % of control; (dose: 240.0 mg/kg/injection, schedule: Q01DX005 (ip), vehicle: saline with Tween-80) 100 % of control.
Consider `[Cl][Ru][Cl].[NH-]CC[NH-].[NH-]CC[NH-]`, for which the T/C is, setting by setting: (dose: 12.5 mg/kg/injection, schedule: Q04DX003 (ip), vehicle: water) 111 % of control and 123 % of control and 124 % of control; (dose: 25.0 mg/kg/injection, schedule: Q04DX003 (ip), vehicle: water) 107 % of control; (dose: 50.0 mg/kg/injection, schedule: Q04DX003 (ip), vehicle: water) 155 % of control.
Consider `CCOC(=O)Oc1ccc(/C=N/NC(N)=S)nc1`, for which the T/C is 163 % of control under setting [14] and 93 % of control under setting [11].
With `CSC(=O)Nc1ccc(C)c(NC(=O)SC)c1`, the T/C runs as follows: under setting [9], 94 % of control; under setting [10], 100 % of control; under setting [15], 100 % of control.
Consider `Cc1cc(N/N=C/c2ccccn2)nc2c(C)cccc12`, for which the T/C by setting is: under setting [9], 90 % of control; under setting [10], 91 % of control; under setting [15], 100 % of control.
Turning to `O=C(CC(=O)c1ccccc1)C(=O)CC(=O)c1ccccc1`, the T/C was 103 % of control (dose: 100.0 mg/kg/injection, schedule: Q04DX002 (ip), vehicle: saline with Tween-80); 99 % of control (dose: 200.0 mg/kg/injection, schedule: Q04DX002 (ip), vehicle: saline with Tween-80); 99 % of control (dose: 400.0 mg/kg/injection, schedule: Q04DX002 (ip), vehicle: saline with Tween-80).
On to `O=[N+]([O-])c1ccc(SN2CCCCC2CC2CCCCC2)c([N+](=O)[O-])c1` (centres undefined), for which the T/C reads like this: under setting [4], 105 % of control; under setting [5], 98 % of control; under setting [6], 96 % of control.
For the compound `O=[N+]([O-])/C(=C/c1ccccc1)c1ccccc1`, the T/C is 109 % of control under setting [12]; 109 % of control (dose: 6.25 mg/kg/injection, schedule: Q04DX003 (ip), vehicle: saline with Tween-80); 118 % of control under setting [13]; 100 % of control (dose: 12.5 mg/kg/injection, schedule: Q04DX003 (ip), vehicle: saline with Tween-80); 118 % of control under setting [16]; 113 % of control (dose: 25.0 mg/kg/injection, schedule: Q04DX003 (ip), vehicle: saline with Tween-80).
On to `CCSC(C/C=C/c1ccccc1)S(=O)CC` (centres undefined), for which the T/C (dose: 100.0 mg/kg/injection, schedule: Q04DX003 (ip), vehicle: saline) was 99 % of control; the T/C (dose: 200.0 mg/kg/injection, schedule: Q04DX003 (ip), vehicle: saline) was 107 % of control; the T/C (dose: 400.0 mg/kg/injection, schedule: Q04DX003 (ip), vehicle: saline) was 105 % of control.
Take `[Cl][Pt+2][Cl].[NH-]c1cccc(C(F)(F)F)c1.[NH-]c1cccc(C(F)(F)F)c1`: the T/C runs as follows: (dose: 3.12 mg/kg/injection, schedule: Q01DX009 (ip), vehicle: Klucel (hydroxypropylcellulose) (HPC)) 103 % of control and 111 % of control; (dose: 6.25 mg/kg/injection, schedule: Q01DX009 (ip), vehicle: Klucel (hydroxypropylcellulose) (HPC)) 97 % of control; (dose: 12.5 mg/kg/injection, schedule: Q01DX009 (ip), vehicle: Klucel (hydroxypropylcellulose) (HPC)) 111 % of control; under setting [1], 106 % of control.
Turning to `CC(=O)c1ccc[n+](CCc2c[nH]c3ccccc23)c1`, the T/C under setting [13] was 104 % of control, the T/C under setting [16] was 113 % of control and the T/C under setting [14] is 109 % of control.

(Values after PubChem BioAssay AID330 (DTP/NCI, 2004).)
